According to patent US5276043A, “Method for treatment of neurodegenerative diseases” (priority 1993, dated 1994):
Read-outs that look alike come from different tables or passages of the source.

Assays:
[1] = biological target: high affinity nicotinic receptors; experiment: Inhibition of L-[3H]nicotine binding to mouse brain membrane preparations; design: species or system Mice (DBA strain); settings: mouse brain membranes, 10 nM L-[3H]nicotine, 2 hr at 4° C.; Ki calculated from IC50 by Cheng method; read-out: Ki (concentration of compound which inhibits 50 percent of L-[3H]nicotine binding)
Procedure: Mice (DBA strain) were maintained on a 12 hour light/dark cycle and were allowed free access to water and food supplied by Wayne Lab Blox, Madison, Wis. Animals used in the present studies were 60 to 90 days of age and weighed 20 to 25 g. Brain membrane preparations were obtained from pooled brain tissue of both males and females.
Mice were killed by cervical dislocation. Brains were removed and placed on an ice-cold platform. The cerebellum was removed and the remaining tissue was placed in 10 volumes (weight:volume) of ice-cold buffer (Krebs-RingersHEPES:NaCl, 118 mM; KCl, 4.8 mM; CaCl2, 2.5 mM; MgSO4, 1.2 mM; HEPES, 20 mM; pH to 7.5 with NaOH) and homogenized with a glass-Teflon tissue grinder. The resulting homogenate was centrifuged at 18000×g for 20 min. and the resulting pellet was resuspended in 20 volumes of water. After 60 min. incubation at 4° C., a new pellet was collected by centrifugation at 18000×g for 20 min. After resuspension in 10 volumes of buffer, a new final pellet was again collected by centrifugation at 18000×g for 20 min. Prior to each centrifugation step, the suspension was incubated at 37° C. for 5 min. to promote hydrolysis of endogenous acetylcholine. […] Protein was determined by the method of Lowry, et al., J. Biol. Chem., Vol. 193, pp. 265-275 (1951), using bovine serum albumin as the standard.
The binding of L-[^3 H]nicotine was measured using a modification of the method of Romano, et al., Science, Vol. 210, pp. 647-650 (1980) as described previously by Marks, et al., Mol. Pharmacol., Vol. 30, pp. 427-436 (1986). The binding of L-[^3 H]nicotine was measured using a 2 hr. incubation at 4° C. […] Nonspecific binding was determined by inclusion of 10 μM nonradioactive nicotine in the incubations. The inhibition of L-[^3 H]nicotine binding by test compounds was determined by including one of eight different concentrations of the test compound in the incubation. […] Inhibition constants (Ki values) were calculated from the IC50 values using the method of Cheng, et al., Biochem. Pharmacol., Vol. 22, pp. 3099-3108 (1973). […]

[2] = test system: synaptosomes from the striatal area of rat brain; experiment: [3H]-dopamine release from rat striatal synaptosomes; assay type: cell-based, Sprague-Dawley rats; settings: read-out: Dopamine Release (percent release relative to (S)-(-)-nicotine)
Procedure: Dopamine release was measured by preparing synaptosomes from the striatal area of rat brain obtained from Sprague-Dawley rats generally according to the procedures set forth by Nagy, et al., J. Neurochem., Vol. 43, pp. 1114-1123 (1984). Striata from 4 rats were homogenized in 2 ml of 0.32M sucrose buffered with 5 mM HEPES (pH 7.5), using a glass-teflon tissue grinder. The homogenate was diluted to 5 ml with additional homogenization solution and centrifuged at 1000×g for 10 min. This procedure was repeated on the new pellet and the resulting supernatant was centrifuged at 12,000×g for 20 min. A 3 layer discontinuous Percoll gradient consisting of 16 percent, 10 percent and 7.5 percent Percoll in HEPES-buffered sucrose was made with the final pellet dispersed in the top layer. After centrifugation at 15,000×g for 20 min., the synaptosomes were recovered above the 16 percent layer with a pasteur pipette, diluted with 8 ml of perfusion buffer (128 mM NaCl, 2.4 mM KCl, 3.2 mM CaCl2, 1.2 mM KH2 PO4, 1.2 mM MgSO4, 25 mM HEPES pH 7.4, 10 mM dextrose, 1 mM ascorbate, 0.01 mM pargyline), and centrifuged at 15,000×g for 20 min. The new pellet was collected and re-suspended in perfusion buffer. The synaptosome suspension was incubated for 10 min. at 37° C. Then [^3 H]-dopamine (Amersham, 40-60 Ci/mmol) was added to the suspension to give a final concentration of 0.1 μM in suspension, and the suspension was incubated for another 5 min. Using this method, 30 to 90 percent of the dopamine was taken up into the synaptosomes, as determined by scintillation counting following filtration through glass fiber filters soaked with 0.5 percent polyethyleneimine. A continuous perfusion system was used to monitor release following exposure to each ligand. The ligands are named in Table I. Synaptosomes were loaded onto glass fiber filters (Gelman type A/E). Perfusion buffer was dripped onto the filters (0.2-0.3 ml/min.) and pulled through the filters with a peristaltic pump. Synaptosomes were washed with perfusion buffer for a minimum of 20 min. before addition of the ligand. After the addition of a 0.2 ml of a 20 μM solution of ligand, the perfusate was collected into scintillation vials at 1 min. intervals and the dopamine released was quantified by scintillation counting. Peaks of radioactivity released above background were summed and the average basal release during that time was subtracted from the total. Release was expressed as a percentage of release obtained with an equal concentration of (S)-(-)-nicotine.

[3] = 0.2 ml of 20 μM ligand solution, relative to equal concentration of (S)-(-)-nicotine

| Structure (SMILES) | Ki [1] | Emax at 20 µM [2, 3] | Emax at 20 µM [2] |
| --- | --- | --- | --- |
| C1=CCC(c2cccnc2)NC1 (racemic) [anatabine] | 240 nM | 70% | – |
| Fc1cncc(C2=NCCCC2)c1 [5-fluoroanabaseine] | – | 50% | – |
| CN1CCCCC1c1cccnc1 (stereo not shown) [methyl anabasine] | 450 nM | – | 5% |
| c1cncc(C2=NCCC2)c1 [myosmine] | 3700 nM | 10% | – |
